This passage reports EC50 results from patent US10144730B2, “Inhibitors of c-Jun-N-terminal kinase (JNK)” (Dana-Farber Cancer Institute, Inc., priority 2011, dated 2018).

Common to all, as to format: cell-based
Test [1] has as its system c-Jun phosphorylation. The test can be described thus: High throughput microscopy of c-Jun phosphorylation in A375 cells. To be noted: Homo sapiens, A-375.
The test system of test [2] is NF-kB nuclear translocation. In words: High-throughput microscopy, NF-kB nuclear translocation. To be noted: Homo sapiens, A-375, A375 cells, TNF-α stimulation, read-out: Cellular EC50 NF-kB. As to the method: (§1) A375 cells were stimulated with anisomycin (FIGS. 14A and 14C to 14F), IGF-1 (FIG. 14B), IL-6 (FIG. 14G), and TNF-α (FIG. 14H) for sixty minutes. The output of multiple signaling pathways was measured using high throughput microscopy at multiple concentrations of four JNK inhibitors and a control compound specific to each pathway DMSO (FIG. 14A), MK2206 (allosteric Akt inhibitor, Haoyuan Chemexpress Co., Limited. Hirai, et al., 2010) (FIG. 14B), PD0325901 (allosteric Mek inhibitor, Haoyuan Chemexpress Co., Limited. Barrett, et al., 2008) (FIGS. 14C and 14D), SB239063 (ATP-competitive p38 inhibitor, Haoyuan Chemexpress Co., Limited. Underwood et al., 2000) (FIGS. 14E and 14F), KIN001-040 (ATP-competitive JAK1,2,3 inhibitor, Haoyuan Chemexpress Co., Limited. Thompson et al., 2002) (FIG. 14G), and KIN001-208 (IKK inhibitor VIII, Haoyuan Chemexpress Co., Limited., Murata, et al., 2004) (FIG. 14H).
(§2) Cells were plated at 7500 cells/well in 96-well microscopy plates (Corning) in recommended media for 24 hours, and then starved in media lacking serum for 16 hours. Cells were pre-treated for 180 minutes with 10-fold stock solutions of JNK inhibitors and for 10 min with control compounds MK2206, PD0325901, SB239063, KIN040, and KIN208 and treated with 10-fold stock solutions of IGF-1, IL-6, TNF-α (all PeproTech), or anisomycin for 60 minutes. Cells were fixed in 2% paraformaldehyde for 10 min at room temperature and washed with PBS-T (Phosphate Buffered Saline, 0.1% Tween 20). Cells were permeabilized in methanol for 10 min at room temperature, washed with PBS-T, and blocked in Odyssey Blocking Buffer (LI-COR Biosciences) for 1 hour at room temperature. Cells were incubated overnight at 4° C. with antibody specific for Erk1/2(pT202/pY204), Akt(pS473), c-Jun(pS73), pP38(T180/Y182) and pSTAT3(Y705) (Cell Signaling Technology), pRSK1(S380) and pMSK1(S376) (Epitomics), and NF-κB (Santa Cruz Biotechnology) diluted 1:400 in Odyssey Blocking Buffer. Cells were washed three times in PBS-T and incubated with rabbit-specific secondary antibody labeled with Alexa Fluor 647 (Invitrogen) diluted 1:2000 in Odyssey Blocking Buffer. Cells were washed once in PBS-T and once in PBS and incubated in 250 ng/ml Hoechst 33342 (Invitrogen) and 1:1000 Whole Cell Stain (blue; Thermo Scientific) solution. Cells were washed twice with PBS and imaged in an imageWoRx high-throughput microscope (Applied Precision). Data were plotted using DataPflex. […]

Test [3] has as its system phosphorylation of Erk. The test can be described thus: High-throughput microscopy, phosphorylation of Erk. The conditions noted are these: Homo sapiens, A-375, A375 cells, anisomycin stimulation, read-out: Cellular EC50 pErk. As to the method:
as §1, §2

For test [4], the system named is phosphorylation of p38. In words: High-throughput microscopy, phosphorylation of p38. The conditions noted are these: Homo sapiens, A-375, A375 cells, anisomycin stimulation, read-out: Cellular EC50 pP38. As to the method:
as §1, §2

Test [5] has as its system phosphorylation of RSK. The test can be described thus: High-throughput microscopy, phosphorylation of RSK. The conditions noted are these: Homo sapiens, A-375, A375 cells, anisomycin stimulation, read-out: Cellular EC50 pRSK. How it is done:
as §1, §2

In test [6] the test system is phosphorylation of STAT3. The test can be described thus: High-throughput microscopy, phosphorylation of STAT3. To be noted: Homo sapiens, A-375, A375 cells, IL-6 stimulation, read-out: Cellular EC50 pSTAT3. How it is done: as §1, §2
[7] abbreviates: A375 cells, anisomycin stimulation, high-throughput microscopy, Table 4, read-out: Cellular EC50 pc-Jun.
[8] abbreviates: A375 cells, anisomycin stimulation, read-out: p-c-Jun EC50 (nM) A375.

SMILES strings stand for the structures. Where two headings read alike, the source gives them in different places.

For `Cc1cc(NC(=O)c2cccc(NC(=O)/C=C/CN(C)C)c2)ccc1Nc1nccc(-c2cccnc2)n1` [JNK-IN-8], the EC50 in test [1] (setting [7]) was 425 nM; in test [1] (setting [8]), 338 nM; in test [1] (Table 5, A375, read-out: E50/A375), 338 nM; in test [2], above 10 µM; in test [3] it was above 10 µM; in test [4], above 10 µM. The EC50 in test [5] and in test [6] was above 10 µM in each case.

Regarding `CN(C)C/C=C/C(=O)Nc1cccc(C(=O)Nc2ccc(Nc3nccc(/C(C#N)=C4\Nc5ccccc5S4)n3)cc2)c1` [JNK-IN-12], the EC50 in test [1] (setting [7]) is 125 nM; in test [1] (setting [8]) it was 134 nM; in test [2] it was above 10 µM; in test [3], above 10 µM; in test [4], above 10 µM; in test [5] it was above 10 µM. In addition, in test [6], the EC50 is above 10 µM.
